Assay [1] deals with FADD−/− Jurkat cells. The assay is described as follows: TNF-induced programmed cell necrosis inhibition, Cell Titer-Glo viability. In kind it is cell-based. The conditions noted are these: Homo sapiens, Jurkat. An outline of the steps:
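FADD-deficient Jurkat cells (2.5×10^5/mL) were pretreated 1 h at 37 °C with compound plus Smac (50 nM as added), then stimulated with TNFα (50 ng/mL as added) for 14 h at 37 °C, 5% CO2. Viability was measured as ATP by CellTiter-Glo luminescence, with unstimulated DMSO wells as 100%. EC50 values were derived.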

The subject of assay [2] is L929 cells. The description is as above. In kind it is cell-based, mouse. The conditions noted are these: Mus musculus, read-out: EC50 inhibitory activity on programmed cell necrosis. In short, it runs like this:
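L929 mouse fibroblasts were pretreated 1 h at 37 °C with compound plus Smac (500 nM solution added), then stimulated with TNFα (500 ng/mL solution added) for 14 h. Viability was read as ATP by CellTiter-Glo luminescence, with unstimulated DMSO wells set to 100%, and EC50 values were calculated.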

Structures are written as SMILES. Like-named read-outs stand apart in the source and are kept apart here.

Broadly, the EC50 is the concentration giving half of the maximal effect. In the case of `Cc1noc([C@@H]2CCCN2C(=O)C(C)(C)Oc2ccc(Cl)cc2)n1` [QY-1-98], the EC50 in assay [1] (14 h, TNFa + SM164, read-out: EC50 inhibitory activity on programmed cell necrosis) is 1530 nM; in assay [1] (TNFa, read-out: EC50 inhibitory activity on programmed cell necrosis), 128 nM; in assay [2] (L929, 14 h, L929 cells (mouse), TNFa + SM164), 1290 nM; in assay [2] (L929, L929 cells (mouse), TNFa) it was 213 nM.

The record behind these values is patent US12662473B2, “Inhibitors for programmed cell necrosis and preparation method therefor and use thereof” (SHANGHAI INSTITUTE OF ORGANIC CHEMISTRY, CHINESE ACADEMY OF …, priority 2019, dated 2026).
